{"source": "patent US10023615B2", "about": "“Efficient transport into white blood cells” (priority 2008, dated 2018)", "key": {"Aβ1-40 and Aβ1-42 levels": {"tested_on": "Aβ1-40 and Aβ1-42 levels", "assay": "Aβ1-40 and Aβ1-42 ELISA in brain homogenate fractions and CSF of hAPP Tg mice", "format": "in vivo, mouse", "procedure": "(§1) a) METHODS • i) Introduction • The study was designed to evaluate the efficacy of the test substance (XG-102, SEQ ID NO: 233) on behavioral, biochemical and histological markers using 5 months (±2 weeks) old female hAPP Tg mice. Therefore, mice were treated every two or three weeks up to 4 months and in the end of the treatment period behavior was evaluated in the Morris Water Maze. At sacrifice brain, CSF and blood were collected. Aβ40 and Aβ42 levels were determined in four different brain homogenate fractions as well as in CSF of Tg mice. Plaque load was quantified in the cortex and the hippocampus of 8 Tg animals per treatment group.\n(§2) iv) Treatment • […] female hAPP transgenic mice were treated with either 0.1 mg/kg b.w./every two weeks or 10 mg/kg b.w./every three weeks of the test substance XG-102 (SEQ ID NO: 233) in two different dosages (n=12/group) or treated with the vehicle (n=12) s.c. once every three weeks over four months.\nvi) Tissue Sampling • At the end of the treatment period, and following all behavioral testing, all remaining mice (n=28) were sacrificed. Therefore, all mice were sedated by standard inhalation anesthesia (Isofluran, Baxter) as described in SOP MET030. Cerebrospinal fluid (CSF) was obtained by blunt dissection and exposure of the foramen magnum. Upon exposure, a Pasteur pipette was inserted to the approximate depth of 0.3-1 mm into the foramen magnum. CSF was collected by suctioning and capillary action until flow fully ceases. Two aliquots of each sample were immediately frozen and kept at −80° C. until ready for further analysis with ELISA technique. After CSF sampling, each mouse was placed in dorsal recumbence, thorax was opened and a 26-gauge needle attached to a 1 cc syringe was inserted into the right cardiac ventricular chamber. Light suction was applied to the needle and blood was collected into EDTA and consequently used to obtain plasma. […]\nvii) Determination of Aβ1-40 and Aβ1-42 • In four different brain homogenate fractions of each Tg mouse as well as in CSF samples the Aβ1-40 and Aβ1-42 levels were evaluated with ELISA technique. […]"}, "[1]": {"tested_on": "amyloid plaques in cortex and hippocampus", "assay": "Amyloid depositions and plaque load (6E10 IHC, ThioflavinS) in hAPP Tg mice", "format": "in vivo, mouse", "procedure": "as §1, §2\nviii) Evaluation of Brain Morphology • Brain tissues of all Tg animals investigated were handled in exactly the same way to avoid bias due to variation of this procedure. From brain halves of 24 Tg mice (8 of each group) 20 cryo-sections per layer (altogether 5 layers), each 10 μm thick (Leica CM 3050S) were sagittally cut and 5 (one from each layer) were processed and evaluated for quantification of plaque load. The five sagittal layers corresponded with the FIGS. 104 to 105, 107 to 108, 111 to 112, 115 to 116 and 118 to 119 according to the morphology atlas “The Mouse Brain” from Paxinos and Franklin (2nd edition). The first layer was specified by the requirement to include the whole hippocampus with it's regions CA1, CA2, CA3, GDlb and GDmb. Immunoreactivity was quantitatively evaluated in the hippocampus and in the cortex using the monoclonal human Aβ-specific antibody 6E10 (Signet) as well as ThioflavinS staining. Remaining brain hemispheres or tissue not used were saved and stored at JSW CNS until the end of the project.\nb) Evaluation • i) Behavior • In the Morris Water Maze trials length of swimming path, escape latencies, swimming speed and in the probe trial crossings over the former platform position and the time spent in each quadrant of the pool were measured for each Tg animal with a special computer software. • ii) Biochemical Evaluation • From all Tg mice CSF samples as well as samples from the brain preparations were analyzed with commercially available Aβ1-40 and Aβ1-42 ELISAs. Measurements of adequate standards were performed concurrently. Samples from brain preparations were analyzed in duplicates. […]"}}, "note": "Entries after “also recorded” stand apart in the source; their conditions may differ. Ends that are not written are not given here.", "data": [{"substance": "dqsrpvqpflnIttprkprpprrrqrrkkrg (DQSRPVQPFLNLTTPRKPRPPRRRQRRKKRG; not fully specified (some residues); printed as dqsrpvqpflnIttprkprpprrrqrrkkrg) [XG-102]", "values": [{"measurement": "Aβ1-42 levels in Triton X-100 fraction", "setting": "Aβ1-40 and Aβ1-42 levels; 0.1 mg/kg", "result": "a significant reduction compared to the vehicle group; also recorded: a decrease in the Triton X-100 fraction"}, {"measurement": "CSF Aβ1-40 and Aβ1-42 levels", "setting": "Aβ1-40 and Aβ1-42 levels; 0.1 and 10 mg/kg", "result": "significantly decreased in CSF compared to vehicle group"}, {"measurement": "brain homogenate Aβ1-40 levels", "setting": "Aβ1-40 and Aβ1-42 levels; four brain homogenate fractions", "result": "did not affect brain homogenate Aβ1-40 levels"}, {"measurement": "mean plaque size (ThioflavinS, hippocampus)", "setting": "[1]; 0.1 mg/kg", "result": "reduced mean plaque size, however this effect did not reach significance level in the ANOVA"}, {"measurement": "6E10 IR plaque load (human amyloid)", "setting": "[1]; 10 mg/kg", "result": "increased versus vehicle; also recorded: a tendentious increase of human amyloid beta"}, {"measurement": "hippocampal ThioflavinS positive plaques (number, area percentage)", "setting": "[1]; 0.1 and 10 mg/kg", "result": "a negatively dose dependent reduction; also recorded: dose dependently reduced"}, {"measurement": "beta-sheet structures in plaques (6E10 and ThioflavinS quantifications)", "setting": "[1]; mouse, in vivo", "result": "a selective reduction of beta-sheet structures in the center of the plaques"}, {"measurement": "cortical ThioflavinS plaque load", "setting": "[1]; mouse, in vivo", "result": "not given for cortical plaques; also recorded: cortical plaque load remained unchanged"}]}]}
